From the CheMixHub viscosity set
± gives the uncertainty stated by the source.

Assay: xn = mol fraction of the nth substance listed

Nc1ccccc1 + C1CCCCC1
Conditions | viscosity [mPa·s]
306.28 K, 101 kPa, x1 = 0.337 | 1.051 ± 0.013
306.33 K, 101 kPa, x1 = 0.462 | 1.247 ± 0.016
306.36 K, 101 kPa, x1 = 0.442 | 1.216 ± 0.015
306.36 K, 101 kPa, x1 = 0.492 | 1.292 ± 0.016
306.37 K, 101 kPa, x1 = 0.543 | 1.363 ± 0.017
306.39 K, 101 kPa, x1 = 0.63 | 1.481 ± 0.019
306.5 K, 101 kPa, x1 = 0.523 | 1.328 ± 0.017
306.54 K, 101 kPa, x1 = 0.41 | 1.163 ± 0.015
306.88 K, 101 kPa, x1 = 0.71 | 1.624 ± 0.02
307.09 K, 101 kPa, x1 = 0.745 | 1.683 ± 0.021
307.11 K, 101 kPa, x1 = 0.442 | 1.192 ± 0.015
307.79 K, 101 kPa, x1 = 0.592 | 1.39 ± 0.018
307.84 K, 101 kPa, x1 = 0.442 | 1.159 ± 0.015
308.04 K, 101 kPa, x1 = 0.492 | 1.235 ± 0.016
308.08 K, 101 kPa, x1 = 0.745 | 1.642 ± 0.021
308.26 K, 101 kPa, x1 = 0.41 | 1.103 ± 0.014
308.28 K, 101 kPa, x1 = 0.39 | 1.07 ± 0.014
308.35 K, 101 kPa, x1 = 0.337 | 0.993 ± 0.013
308.35 K, 101 kPa, x1 = 0.462 | 1.172 ± 0.015
308.36 K, 101 kPa, x1 = 0.543 | 1.292 ± 0.016
308.41 K, 101 kPa, x1 = 0.63 | 1.409 ± 0.018
308.43 K, 101 kPa, x1 = 0.523 | 1.261 ± 0.016
309.04 K, 101 kPa, x1 = 0.745 | 1.609 ± 0.02
309.11 K, 101 kPa, x1 = 0.442 | 1.122 ± 0.014
309.15 K, 101.32 kPa, x1 = 0.7073 | 1.53 ± 0.044
309.4 K, 101 kPa, x1 = 0.592 | 1.324 ± 0.017
309.69 K, 101 kPa, x1 = 0.71 | 1.52 ± 0.019
309.88 K, 101 kPa, x1 = 0.492 | 1.169 ± 0.015
310.04 K, 101 kPa, x1 = 0.745 | 1.57 ± 0.02
310.08 K, 101 kPa, x1 = 0.543 | 1.234 ± 0.016
310.21 K, 101 kPa, x1 = 0.337 | 0.953 ± 0.012
310.23 K, 101 kPa, x1 = 0.41 | 1.047 ± 0.013
310.32 K, 101 kPa, x1 = 0.442 | 1.09 ± 0.014
310.32 K, 101 kPa, x1 = 0.462 | 1.117 ± 0.014
310.41 K, 101 kPa, x1 = 0.523 | 1.2 ± 0.015
310.49 K, 101 kPa, x1 = 0.63 | 1.345 ± 0.017
311.23 K, 101 kPa, x1 = 0.745 | 1.534 ± 0.019
311.28 K, 101 kPa, x1 = 0.592 | 1.258 ± 0.016
311.35 K, 101 kPa, x1 = 0.39 | 0.995 ± 0.013
311.37 K, 101 kPa, x1 = 0.442 | 1.063 ± 0.014
311.64 K, 101 kPa, x1 = 0.492 | 1.12 ± 0.014
311.89 K, 101 kPa, x1 = 0.523 | 1.16 ± 0.015
311.98 K, 101 kPa, x1 = 0.71 | 1.439 ± 0.018
311.98 K, 101 kPa, x1 = 0.745 | 1.501 ± 0.019
312.01 K, 101 kPa, x1 = 0.462 | 1.067 ± 0.014
312.07 K, 101 kPa, x1 = 0.41 | 1.004 ± 0.013
312.11 K, 101 kPa, x1 = 0.337 | 0.919 ± 0.012
312.18 K, 101 kPa, x1 = 0.63 | 1.289 ± 0.016
312.19 K, 101 kPa, x1 = 0.543 | 1.174 ± 0.015
312.2 K, 101 kPa, x1 = 0.442 | 1.042 ± 0.013
